Results: patent US20090030037A1, “Sustained Release Formulation and Dosing Schedules of Leukotriene Synthesis Inhibitor for Human Therapy” (deCODE Genetics ehf., priority 2005, published 2009)
Values joined by “and” are separate entries in the source; they are usually repeats but may differ in a detail not shown here. Equal values may be shown once.

Legend:
[1] = test system: Lp-PLA2; experiment: Study DG-031-201: Lp-PLA2; format: in vivo, human; settings: 2 lower doses (250 mg/day and 500 mg/day)
Procedure: (§1) Genet. 2004). Apart from FLAP, allele A of the SNP SG12S25 in the LTA4 hydrolase gene, another gene in the LT pathway, is also associated with MI, as described in PCT application no. PCT/US03/32556 and PCT/US04/30582 incorporated by reference.
Patients who met the study eligibility criteria were enrolled and randomized into 3 different dose-level groups: (1) 64 patients on 250 mg/day therapy with DG-031 (250 mg q.d.), vs placebo; (2) 64 patients on 500 mg/day therapy with DG-031 (250 mg b.i.d.) vs placebo; and (3) 63 patients on 750 mg/day therapy with DG-031 (250 mg t.i.d.) vs placebo. […] All patients received 3 tablets per day. Treatment periods, 4 weeks in duration each, were separated by a 2-week washout period. The placebo tablets were identical in shape, color, form and taste to the active tablets except that they contained no active drug ingredients. Treatment with DG-031 or placebo was in addition to the subject's standard care, including all medications and treatment plan as prescribed by the subject's cardiologist prior to enrolment. […]
All data were analyzed according to a pre-established statistical analysis plan (SAP) and by intention-to-treat (ITT). […] The difference between DG-031 and placebo treatment was the primary outcome, assessed separately for each of the biomarkers. […]

[2] = test system: CRP; experiment: Study DG-031-201: Hs-CRP in serum; format: in vivo, human; settings: for CRP, change: Study 201, 2-6 wks
Procedure: as §1
(§2) Patients who met the study eligibility criteria were enrolled and randomized into 3 different dose-level groups: (1) 64 patients on 250 mg/day therapy with DG-031 (250 mg q.d.), vs placebo; (2) 64 patients on 500 mg/day therapy with DG-031 (250 mg b.i.d.) vs placebo; and (3) 63 patients on 750 mg/day therapy with DG-031 (250 mg t.i.d.) vs placebo. […] All patients received 3 tablets per day. Treatment periods, 4 weeks in duration each, were separated by a 2-week washout period. The placebo tablets were identical in shape, color, form and taste to the active tablets except that they contained no active drug ingredients. Treatment with DG-031 or placebo was in addition to the subject's standard care, including all medications and treatment plan as prescribed by the subject's cardiologist prior to enrolment. A total of 191 subjects were enrolled, with 172 completing all 8 visits or 8 patients short of the target of 180 patients.
(§3) The primary objective was to determine whether the FLAP inhibitor has a statistically significant effect, compared to placebo, on one or more biomarkers of MI risk, including: (1) ionomycin-induced LTB4 and MPO release by neutrophils ex vivo; (2) MPO, CRP, N-tyrosine, Lp-PLA2 or amyloid A in serum, or (3) LTE4 in urine. The secondary objective was to determine whether the effect of DG-031 was dose-dependent. The tertiary objective was to assess other biomarkers (See Results). Evaluation of safety and tolerability of the drug was also a primary endpoint.
(§4) All data were analyzed according to a pre-established statistical analysis plan (SAP) and by intention-to-treat (ITT). Each arm of the study, as well as pooled sets (combining dose levels), was considered for the primary analysis. Each such set is an AB/BA cross-over design and in the primary analysis of efficacy, the levels of biomarkers of MI risk at the end of the treatment periods (visits 4 and 7) were used as primary response variables. The difference between DG-031 and placebo treatment was the primary outcome, assessed separately for each of the biomarkers. Treatment effect was tested using a two-sample t-test on the period differences for suitably transformed response variables, under an assumption of normality of the transformed data. We report treatment effect as one half of the observed mean differences in the two-sample t-test, with a 95% CI. No pre-tests for carry-over effect were performed as a part of the primary analysis. Tests for carry-over were done and are reported separately from results of primary analysis. All hypotheses were tested at a two-sided nominal significance level of 0.05 and p-values based on t-tests are reported. In addition, for the primary efficacy endpoints where the effects of the two highest doses on 10 primary variables were studied, a randomization test was performed which corrects for multiple testing and ensures that the key results are not affected by distributional concerns. In particular, 1 million permutations of the patients into the different study tracks were performed, generating a reference distribution for the maximum of the 10 t-statistics of the biomarkers under the null hypothesis of no drug effect. By comparing the observed t-statistic of each of the 10 biomarkers to this reference distribution, empirical p-values were computed. As was stated in the SAP prior to unblinding, it was considered likely that experimental manipulations would alter the effect of the drug on two of the primary markers; this was indeed the case and we are only reporting directly on 8 of the 10 primary markers but all 10 are included in the randomization test. […]

[3] = test system: LTB4; experiment: Study DG-031-201: ionomycin-induced LTB4 production in whole blood ex vivo; design: species or system human; settings: for LTB4 production, percent change: Study 201
Procedure: as §1, §2, §3
as §4, with “effect.” for “effect. By comparing the observed t-statistic of each of the 10 biomarkers to this reference distribution, empirical p-values were computed. As was stated in the SAP prior to unblinding, it was considered likely that experimental manipulations would alter the effect of the drug on two of the primary markers; this was indeed the case and we are only reporting directly on 8 of the 10 primary markers but all 10 are included in the randomization test.”

[4] = Effect of high fat meal on DG-031 pharmacokinetics; format: in vivo, human; settings: administration with a high fat meal
Procedure: In the context of treatment of a single individual, a steady state concentration may be expected to fluctuate from day-to-day with variations in the individual's diet, level activity, state of health, co-administration of other medications, and the like. DG-031 is preferably administered with food to improve adsorption. […] Alternatively, DG-031 is administered in the absence of food. The decision whether or not to administer with food may be based on the Cmax and Cmin observed following administration of a novel formulation where the Cmax and Cmin fall within the desired range. […] In this context, the steady state concentration for an individual refers to an average concentration taken at multiple time points, to adjust for such fluctuation.

[5] = test system: LDL-C; experiment: Study DG-031-204: LDL-C; format: in vivo, human; settings: for LDL-C increase, mean change from baseline: after 4 weeks
Procedure: An additional single site, open label study was carried out to obtain biomarker and safety data on additional DG-031 doses (i.e., 1000 mg and 1500 mg). This study examined the safety, tolerability and dose-related effects of DG-031 on inflammatory biomarkers including: LTB4, hsCRP, and MPO. A total of 119 patients with a prior history of CAD and MI were randomized to receive either 1000 mg DG-031 (500 mg BID) or 1500 mg DG-031 (500 mg TID) daily for 4-6 weeks. Treatment with DG-031 in addition to the subject's standard care, medication, and treatment, was prescribed by the patient's cardiologist. A majority of the subjects received statin therapy before, during and after the study. Follow-up assessments were performed 2 weeks after the end of study drug administration.
The biomarkers were analyzed as described in Example 1. Statistical analysis of the data was carried out using a one-sample t-test on change from baseline with a two-sided nominal significance level of 0.050. Biomarker concentrations were log-transformed and a simple last observation carried forward (LOCF) scheme was used to impute missing observations.
LDL-C was measured weekly after administration of DG-031 500 mg BID or 500 mg TID. The mean change from baseline after 4 weeks of treatment was an increase of 9% (p=0.004; n=52) for 500 mg BID and an increase of 9% (p<0.001; n=58) for the 500 TID group. […] The LDL-C effect appeared to increase over time and tended toward baseline values at the 2-week follow up visit. A preliminary exposure-response analysis of data from studies DG-031-201, DG-031-203, and DG-031-204 supported a dose related increase in LDL-C.

[6] = difference visit 2 to 5, 500 and 750 mg/day vs placebo

With `O=C(O)[C@@H](c1ccc(OCc2ccc3ccccc3n2)cc1)C1CCCC1` [DG-031, (R)-(+)-alpha-cyclopentyl-4-(2-quinolinylmethoxy)-Benzeneacetic acid] the “Effects on Lp-PLA2” value [1] was “not significant”, the “Reduction in CRP” value ([2]; 250 mg BID and TID, end of wash-out period (week 6)) was 25% and the “CRP, change” value ([2]; 250 mg BID) was −24%. The “CRP, change” value ([2]; 250 mg QD) was −6%, the “CRP, change” value ([2]; 250 mg TID) was −13% (St. 201) and the “Carry-over effect, CRP” value [2, 6] was −0.28. The “Reduction of serum CRP” value ([2]; higher two dose groups (250 mg BID and 250 mg TID), at 2 weeks, p=0.07) was 16%, the “LTB4 production, percent change” value ([3]; 250 mg BID) was −18% and the “LTB4 production, percent change” value ([3]; 250 mg QD) was −13%. The “LTB4 production, percent change” value ([3]; 250 mg TID) was −34% (St. 201) and −34% (−201), the “Reduction of capacity for LTB4 production” value ([3]; 250 mg TID, at steady state Cmin) was 30% and the “Carry-over effect, LTB4 in whole blood, corr. for wbc” value [3, 6] was −0.10. For the same molecule, the half-life [4] was “shorter”, the “LDL-C increase, mean change from baseline” value ([5]; 500 mg BID) was 9% and the “LDL-C increase, mean change from baseline” value ([5]; 500 mg TID) was 9%. For the same molecule, the “LDL-C percent change from baseline after 4 weeks of DG-031 administration, Mean” value (“LDL-C percent change from baseline” below) ([5]; dose 250) was 2.3%, the “LDL-C percent change from baseline” value ([5]; dose 500) was 5.0% and the “LDL-C percent change from baseline” value ([5]; dose 750) was 7.7%. The “LDL-C percent change from baseline” value ([5]; dose 1000) was 10.3%, the “LDL-C percent change from baseline” value ([5]; dose 1250) was 13.0% and the “LDL-C percent change from baseline” value ([5]; dose 1500) was 15.7%.
